Source: US20250351832A1, “PHYTOCHEMICALS AS BIOPESTICIDES AND BIOSTIMULANTS” (KAY BEE BIO ORGANICS PVT. LTD., priority 2024, published 2025)
Read-outs that look alike come from different tables or passages of the source.

Key:
[1] = system: Cotton Bacterial Leaf Blight (BLB-Xanthomonas citri pv. Malvacearum); assay: Field trial, cotton bacterial leaf blight, Embodiment 12 (Ex. 116); conditions: for % Increase over control: cotton yield; for % Disease reduction over Control / Yield: cotton
[2] = system: Citrus Canker (Xanthomonas citri pv. Citri); assay: Field trial, citrus canker (Ex. 117); conditions: for % Increase in yield over control / Yield (t/ha): citrus; for Citrus Canker severity, Pre spray: pre spray (baseline)
[3] = system: Pomegranate Bacterial Leaf Blight (BLB-Xanthomonas axonopodis pv Punicae); assay: Field trial, pomegranate bacterial leaf blight (Ex. 99); conditions: for % Increase in yield over control / Yield: pomegranate
[4] = system: Spodoptera litura; assay: whole plant or invertebrate; conditions: 72 h
[5] = system: Thrips
[6] = system: Mealy Bug; conditions: mealy bug on cotton plants, green house, dose 1 ml/gm/lit. spray
[7] = system: Spodoptera litura; conditions: Spodoptera litura 3rd instar on cabbage plants, dose 1 ml/gm/lit. spray
[8] = system: Spodoptera litura; conditions: 72 h, 1 mL or g/L
[9] = system: Alternaria alternata; assay: In vitro poisoned food technique against fungus (Ex. 20); format: cell-based; conditions: […]
[10] = system: Aphid
[11] = system: Thrips; assay: whole plant or invertebrate; conditions: in Gossypium hirsutum, 48 h
[12] = system: Mite; conditions: Dose 1 ml/gm/lit.; 48 hrs
[13] = system: Mite; conditions: mite on okra plants, green house, dose 1 ml/gm/lit. spray
[14] = system: Helicoverpa armigera; conditions: Helicoverpa armigera 3rd instar on chickpea plants, dose 1 ml/gm/lit. spray
[15] = system: Aphid; assay: whole plant or invertebrate; conditions: 48 h
[16] = system: Mealy Bug; conditions: Mealy Bug on cotton leaves, dose 1 ml/gm/lit., 48 Hrs.
[17] = system: chili seedlings; assay: Response of chili plants, greenhouse growth (Ex. 31); format: in vivo
[18] = system: tomato seedlings; assay: Response of tomato plants, greenhouse growth (Ex. 30); format: in vivo
[19] = system: Aphid; conditions: 48 h, 1 mL or g/L
[20] = cited from earlier work
[21] = system: Thrips; conditions: 48 h, 1 mL or g/L
[22] = system: Helicoverpa armigera; conditions: Helicoverpa armigera on okra fruits, dose 1 ml/gm/lit., 72 Hrs.
[23] = 48 hrs, corrected for water control
[24] = 72 hrs, corrected for water control
[25] = read-out: % Corrected Mortality at 48 Hrs.
[26] = read-out: % Mortality at 48 Hrs.
[27] = chili seedlings, dose 1 ml/gm/lit, 10th day
[28] = tomato seedlings, 10th day, dose 1 ml/gm/lit
[29] = tomato seedlings, dose 1 ml/gm/lit, 10th day
[30] = Table 13, descriptive, no test described

## O=[N+]([O-])C(Br)(CO)CO [Bronopol]
[1]; 1st spray, 5th Day, dose 500 ppm
  cotton BLB severity: 31.33
[1]; 1st spray, 10th Day, dose 500 ppm
  cotton BLB severity: 27.10
[1]; 2nd spray, 5th Day, dose 500 ppm
  cotton BLB severity: 25.60
[1]; 2nd spray, 10th Day, dose 500 ppm
  cotton BLB severity: 23.60
[1]; dose 500 ppm
  % Increase over control: 13.79%
  % Disease reduction over Control: 66.38%
  Yield: 20.30 qtl/ha
[2]; dose 500 ppm
  % Disease reduction over Control: 72.62%
  Citrus Canker severity, 1st spray 5rd Day: 38.48
  Citrus Canker severity, 1st spray 10th day: 33.15
  Citrus Canker severity, 2nd spray 5rd day: 27.45
  Citrus Canker severity, 2nd spray 10th Day: 22.45
  % Increase in yield over control: 3.61%
  Yield (t/ha): 8.30 t/ha
  Citrus Canker severity, Pre spray: 41.75
[3]; dose 500 ppm
  % Disease reduction over Control: 66.68%
  BLB severity 1st spray 3rd Day: 36.68
  BLB severity 1st spray 5th day: 32.15
  BLB severity 2nd spray 3rd Day: 28.75
  BLB severity 2nd spray 5th Day: 26.65
  % Increase in yield over control: 10.36%
  Yield: 10.55 t/ha

## [Cu+2].[OH-].[OH-] [Copper Hydroxide]
[1]; 1st spray, 5th Day, dose 0.30%
  cotton BLB severity: 31.00
[1]; 1st spray, 10th Day, dose 0.30%
  cotton BLB severity: 29.75
[1]; 2nd spray, 5th Day, dose 0.30%
  cotton BLB severity: 27.45
[1]; 2nd spray, 10th Day, dose 0.30%
  cotton BLB severity: 26.45
[1]; dose 0.30%
  % Increase over control: 7.89%
  % Disease reduction over Control: 62.32%
  Yield: 19.00 qtl/ha
[2]; dose 0.30%
  % Disease reduction over Control: 70.60%
  Citrus Canker severity, 1st spray 5rd Day: 37.65
  Citrus Canker severity, 1st spray 10th day: 33.15
  Citrus Canker severity, 2nd spray 5rd day: 28.10
  Citrus Canker severity, 2nd spray 10th Day: 24.10
  % Increase in yield over control: 13.98%
  Yield (t/ha): 9.30 t/ha
  Citrus Canker severity, Pre spray: 41.45
[3]; dose 0.30%
  % Disease reduction over Control: 61.56%
  BLB severity 1st spray 3rd Day: 35.45
  BLB severity 1st spray 5th day: 33.15
  BLB severity 2nd spray 3rd Day: 31.2
  BLB severity 2nd spray 5th Day: 30.75
  % Increase in yield over control: 16.42%
  Yield: 11.13 t/ha

## [Cl-].[Cu+2].[Cu+2].[OH-].[OH-].[OH-] [Copper oxychloride]
[1]; 1st spray, 5th Day, dose 0.25%
  cotton BLB severity: 30.00
[1]; 1st spray, 10th Day, dose 0.25%
  cotton BLB severity: 28.45
[1]; 2nd spray, 5th Day, dose 0.25%
  cotton BLB severity: 23.65
[1]; 2nd spray, 10th Day, dose 0.25%
  cotton BLB severity: 21.36
[1]; dose 0.25%
  % Increase over control: 5.41%
  % Disease reduction over Control: 69.57%
  Yield: 18.50 qtl/ha
[3]; dose 0.25%
  % Disease reduction over Control: 67.92%
  BLB severity 1st spray 3rd Day: 36.65
  BLB severity 1st spray 5th day: 30.15
  BLB severity 2nd spray 3rd Day: 26.14
  BLB severity 2nd spray 5th Day: 25.66
  % Increase in yield over control: 12.45%
  Yield: 10.75 t/ha

## CCCCC[C@H](O)CC(=O)CCc1ccc(O)c(OC)c1 [Gingerol]
[4]; read-out: % Corrected Mortality at 72 Hrs.
  mortality at 1 mL or g/L: 36.8%
[4]; read-out: % Mortality at 72 Hrs.
  mortality at 1 mL or g/L: 40%
[5]; 48 h
  Total No. of dead insect at 48 Hrs.: 30.00
[5]; thrips on cotton plants, greenhouse, dose 1 ml/gm/lit. spray, 48 hrs after application
  % Mortality at 48 Hrs.: 30.00%
[5]; thrips on cotton plants, greenhouse, dose 1 ml/gm/lit. spray, 48 hrs, corrected for water control
  % Corrected Mortality at 48 Hrs.: 22.22%
[6]; 48 hrs after application
  % Mortality at 48 Hrs.: 37.50%
[6]; [23]
  % Corrected Mortality at 48 Hrs.: 30.56%
[7]; 72 hrs after application
  % Mortality at 72 Hrs.: 37.50%
[7]; [24]
  % Corrected Mortality at 72 Hrs.: 34.21%
[8]
  Total No. of dead insect at 72 Hrs.: 4.00
[9]
  inhibition of growth at 1 mL or g/L: 51.7%
[10]; 48 h
  Total No. of dead insect at 48 Hrs.: 6.25
[10]; Dose 1 ml/gm/lit., 48 hrs
  % Corrected Mortality at 48 Hrs.: 57.14%
  % Mortality at 48 Hrs.: 62.50%
[11]; [25]
  mortality at 1 mL or g/L: 28.6%
[11]; [26]
  mortality at 1 mL or g/L: 37.5%
[12]
  % Corrected Mortality at 48 Hrs.: 29.73%
  % Mortality at 48 Hrs.: 35.00%
[13]; 48 hrs after application
  % Mortality at 48 Hrs.: 30.00%
[13]; [23]
  % Corrected Mortality at 48 Hrs.: 26.32%
[14]; 72 hrs after application
  % Mortality at 72 Hrs.: 50.00%
[14]; [24]
  % Corrected Mortality at 72 Hrs.: 50.00%
[15]; [25]
  mortality at 1 mL or g/L: 58.8%
[15]; [26]
  mortality at 1 mL or g/L: 65%
[16]
  % Mortality at 48 Hrs.: 27.50%
[16]; corrected for water control
  % Corrected Mortality at 48 Hrs.: 23.68%
[17]
  CCI Pre: 9.40
  Plant Height (cm) Pre: 4.05 cm
[17]; 120 h
  CCI 5th Day: 13.02
  Plant Height (cm) 5th Day: 5.95 cm
[17]; 240 h
  CCI 10th Day: 16
  Plant Height (cm) 10th Day: 6.65 cm
  Root Lenght % Increase over control: 37.61%
[17]; [27]
  CCI % Increase over pre on 10th Day: 70.21%
  Plant Height % Increase over pre on 10th Day: 64.20%
  Root Lenght (cm) 10th Day: 3.77 cm
  Stem Girth % Increase over pre on 10th Day: 45.00%
[18]
  CCI Pre: 12.65
  Plant Height Pre: 5.62 cm
  Stem Girth Pre: 1.35 mm
[18]; 120 h
  CCI 5th Day: 14.63
  Plant Height 5th Day: 6.45 cm
  Stem Girth 5th Day: 1.92 mm
[18]; 240 h
  CCI 10th Day: 16.87
  Plant Height 10th Day: 7.59 cm
  Root Length % Increase over control: 31.77%
  Stem Girth 10th Day: 2.31 mm
[18]; [28]
  Plant Height % Increase over pre on 10th Day: 35.05%
  Stem Girth % Increase over pre on 10th Day: 70.52%
[18]; [29]
  CCI % Increase over pre on 10th Day: 33.36%
  Root Length (cm) 10th Day: 4.38 cm
[19]
  Total No. of dead insect at 48 Hrs.: 65.00
[20]; [30]
  Antifungal Activity - Mode of action: More effective in restricting
  Antioxidant Activity - Mode of action: High antioxidant activity
  Bactericidal Activity - Mode of action: Antibacterial activity
  Insecticidal Activities - Mode of action: Exhibit repellent activity
  Nematicidal Activity - Mode of action: Suppressed root knot egg
  Virucidal Activity - Mode of action: Inhibit viral nucleic
[20]; Table 13, effect on plants, descriptive
  Phytotonic Effect: Enhanced plant
[21]
  Total No. of dead insect at 48 Hrs.: 3.75
[22]
  % Mortality at 72 Hrs.: 52.50%
[22]; corrected for water control
  % Corrected Mortality at 72 Hrs.: 52.50%

## Copper
[2]; dose 0.25%
  % Disease reduction over Control: 71.15%
  Citrus Canker severity, 1st spray 5rd Day: 39.56
  Citrus Canker severity, 1st spray 10th day: 34.15
  Citrus Canker severity, 2nd spray 5rd day: 29.65
  Citrus Canker severity, 2nd spray 10th Day: 23.65
  % Increase in yield over control: 13.04%
  Yield (t/ha): 9.20 t/ha
  Citrus Canker severity, Pre spray: 40.52
